Measured values as given in patent US20120214784A1, “SPIROPIPERIDINE COMPOUNDS AS ORL-1 RECEPTOR ANTAGONISTS” (ELI LILLY AND COMPANY, priority 2009, published 2012).

Experiments:
[1] = biological target: T1, cloned human ORL1/nociceptin receptors (Homo sapiens, UniProt P41146); test: Functional blockade of agonist-mediated G-protein activation, GTP-γ-[35S] binding; format: biochemical
T1 construct: expressed in transfected cells
Description: Agonist-mediated stimulation of G-protein coupled receptors results in the activation of membrane associated Gαβγ-protein heterotrimer complexes, and represents the first step in the transduction of extracellular signals to modification of intracellular pathways. The first step in activation of receptor-mediated activation of Gαβγ-proteins heterotrimer is the exchange of Gα subunit bound guanosine diphoshpate (GDP) for guanosine triphosphate (GTP). The binding of GTP to the Gα subunit causes dissociation of the heterotrimer subunits, Gβ and Gγ, resulting in the modulation of several intracellular signaling cascades. Measurement of receptor-mediated G-protein activation can be measured using the non-hydrolyzable radiolabeled analog of GTP, GTP-γ-[35S]. Utilizing this methodology, antagonist affinity (Kb) is measured in membranes expressing cloned human ORL1/nociceptin receptors using a GTP-γ-[35S] binding assay according to previously described protocols with minor modifications (DeLapp et al., J Pharmacol Exp Ther. 1999 May; 289(2):946-55; Ozaki et al., Eur J Pharmacol. 2000 Aug. 18; 402(1-2):45-53). Assays are conducted in a 200-μl volume with the following buffer composition: 100 mM NaCl, 20 mM HEPES, 5 mM MgCl2, 1 mM EDTA, 0.1% BSA, 3 μM GDP, 0.5 nM [^35S]GTPγS. ORL1 receptor membrane suspension is added at a concentration of 20 μg protein per well and receptor stimulation is achieved using 300 nM nociceptin/OFQ. Wheat germ agglutinin coated SPA beads (Amersham, Arlington Hts., Ill.) are added at 1 mg per well to detect membrane-bound [^35S]GTPγS. Plates are sealed and incubated for 2 hr. at room temperature. Plates are then placed at 4° C. overnight to allow the SPA beads to settle and then counted in a Wallac Microbeta. Specific [^35S]GTPγS binding is determined as the difference in CPM observed in the absence and presence of 10 μM unlabeled GTPγS. Data are plotted as the percent of specific [^35S]GTPγS bound. Curves are plotted as the percent of specific binding and IC50 values are determined using a sigmoidal dose response curve with variable slope. Antagonist affinity (Kb) is estimated according to DeLapp et al., 1999 using a modification of the equation of Cheng and Prusoff (1973) where Kb=IC50×(1+D×EC50^−1)^−1.

[2] = biological target: human ERG (hERG) K+ channel (Homo sapiens, UniProt Q12809); test: hERG channel [3H]astemizole binding assay; conditions: HEK293 cells expressing cloned hERG, [3H]astemizole 2 nM; read-out: Ki for hERG K+ channel
human ERG (hERG) K+ channel, sequence (Q12809 whole entry): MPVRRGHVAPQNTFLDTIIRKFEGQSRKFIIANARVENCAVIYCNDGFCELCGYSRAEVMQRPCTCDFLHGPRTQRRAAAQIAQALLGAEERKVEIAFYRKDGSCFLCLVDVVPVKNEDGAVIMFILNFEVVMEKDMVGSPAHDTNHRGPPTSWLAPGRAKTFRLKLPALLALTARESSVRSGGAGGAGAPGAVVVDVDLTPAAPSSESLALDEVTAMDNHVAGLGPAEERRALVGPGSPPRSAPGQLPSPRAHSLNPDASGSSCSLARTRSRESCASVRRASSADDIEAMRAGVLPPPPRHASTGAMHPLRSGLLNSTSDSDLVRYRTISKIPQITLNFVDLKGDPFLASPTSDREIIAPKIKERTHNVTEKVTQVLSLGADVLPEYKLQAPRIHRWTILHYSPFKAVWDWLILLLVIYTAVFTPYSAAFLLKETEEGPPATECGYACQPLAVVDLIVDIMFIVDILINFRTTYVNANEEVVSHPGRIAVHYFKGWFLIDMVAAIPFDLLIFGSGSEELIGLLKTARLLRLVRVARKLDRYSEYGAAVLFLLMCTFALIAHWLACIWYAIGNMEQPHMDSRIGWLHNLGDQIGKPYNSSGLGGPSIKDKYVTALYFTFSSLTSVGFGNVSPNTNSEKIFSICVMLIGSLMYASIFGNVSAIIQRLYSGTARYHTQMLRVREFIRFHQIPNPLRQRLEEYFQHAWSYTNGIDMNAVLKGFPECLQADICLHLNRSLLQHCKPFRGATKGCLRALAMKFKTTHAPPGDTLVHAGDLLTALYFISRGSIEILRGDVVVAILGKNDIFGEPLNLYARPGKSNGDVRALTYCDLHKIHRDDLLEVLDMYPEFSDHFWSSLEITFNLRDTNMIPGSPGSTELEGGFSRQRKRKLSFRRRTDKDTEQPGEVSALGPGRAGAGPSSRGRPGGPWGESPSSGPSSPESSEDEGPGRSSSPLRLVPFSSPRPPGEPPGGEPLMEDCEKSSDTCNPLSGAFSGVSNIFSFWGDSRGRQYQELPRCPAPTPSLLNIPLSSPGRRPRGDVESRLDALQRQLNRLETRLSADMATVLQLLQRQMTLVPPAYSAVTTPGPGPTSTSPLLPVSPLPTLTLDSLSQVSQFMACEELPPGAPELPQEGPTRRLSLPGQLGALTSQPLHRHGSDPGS
Protocol: Blockade of K^+-channel conductance in the heart is associated with cardiotoxicity in the form of QT-wave prolongation. The affinity (Ki) of the exemplified nociceptin receptor antagonists for the human ERG (hERG) K^+ channel is determined in HEK293 cells expressing cloned hERG using the hERG channel antagonist radioligand [3H]astemizole (2 nM final assay concentration) according to well known procedures (see for example Finlayson K, et al. (Eur J Pharmacol. 412(3):203-12, 2001) [3H]Astemizole binding assays are performed at the contract research company Cerep (Paris France) according to standard procedures.

[3] = tested on: NIH-Swiss mice; 129S6 wild type and nociceptin/ORL1 receptor knockout mice; test: Forced-swim test in mice (mFST); format: in vivo, mouse; conditions: mFST
Description: Forced-Swim Test in Mice (mFST) mFST is an established in vivo assay for antidepressant activity (Li et al. J Pharmacol Exp Ther. 319(1):254-9, 2006.). […] The mFST was used to evaluate potential antidepressant-like activity of novel nociceptin/ORL1 antagonists according to previously published methods (Li et al. J Pharmacol Exp Ther. 319(1):254-9, 2006.). Briefly, male NIH-Swiss mice (Harlan Sprague-Dawley, Indianapolis, Ind.) weighing between 25-30 g are used. Group housed animals are removed from the vivarium to the testing area in their own cages and allowed to adapt to the new environment for at least 1 hour before testing. Alternatively, male 129S6 wild type and nociceptin/ORL1 receptor knockout mice were used to confirm dependence of the response to compound was nociceptin/ORL1 receptor dependent. All compounds are prepared in 20% Captisol, 25 mM phosphate buffer, pH 2.0 on the day of use. Mice are placed in a cylinder (diameter: 10 cm; height: 25 cm) filled with 6 cm of water (22-25° C.) for 6 min. The duration of immobility during the last 4 min. of the 6 min. period of the test was scored. A mouse is recorded as immobile when floating motionless or making only those movements necessary to keep its head above water.

[4] = tested on: wild type and ORL knockout mice; test: Blockade of fasting-induced hyperphagia in mice; format: in vivo, mouse; conditions: wild type mice, oral gavage 30 min. prior to food, food intake 1 hr
Description: Blockade of fasting-induced hyperphagia in rats is an accepted model for hyperphagic eating disorders. […] Mice are individually housed a minimum of 3 days prior to the onset of testing to eliminate any effects of stress due to the change from group to individual housing. Three mice/genotype are randomly assigned to each treatment group on the test day. Pre-fast body weight measurements are taken, and food is then removed from cages overnight. Mice are fasted for approximately 15 hr. The next morning, the mice are given one of three doses of drug or vehicle via oral gavage 30 min. prior to gaining access to food. Drugs are dissolved in 20% Captisol dissolved in 25 mM phosphate buffer, pH 2.0. Measurements of body weight are taken immediately prior to drug treatment or 24 hr. after access to food is restored. […] Measurements of food intake are recorded 1 hr following access to food, as indicated, by weight of food remaining at 1 hr. It should be noted that food intake measured is during the light phase, a time during which mice are typically at rest and not normally eating. Following initial testing, mice are rested for 1 week with access to unlimited chow.

T1 sequence (P41146 whole entry): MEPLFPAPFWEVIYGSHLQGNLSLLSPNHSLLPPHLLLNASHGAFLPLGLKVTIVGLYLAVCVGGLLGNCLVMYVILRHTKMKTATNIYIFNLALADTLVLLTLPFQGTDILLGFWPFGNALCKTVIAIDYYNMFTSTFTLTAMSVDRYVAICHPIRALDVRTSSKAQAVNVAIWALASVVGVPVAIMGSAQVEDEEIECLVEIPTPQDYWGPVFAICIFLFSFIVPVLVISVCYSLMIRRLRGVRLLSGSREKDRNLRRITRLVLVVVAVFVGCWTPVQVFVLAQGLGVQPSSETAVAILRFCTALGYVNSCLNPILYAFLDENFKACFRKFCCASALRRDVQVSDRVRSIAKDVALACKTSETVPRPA

Cc1nn(-c2c(F)cccc2F)cc1CN1CCC2(CC1)OCC(F)(F)c1cc(Cl)sc12.O=C(O)C(O)C(O)C(=O)O [Example 2, 2-Chloro-1′-[[1-(2,6-difluorophenyl)-3-methyl-pyrazol-4-yl]methyl]-4,4-difluoro-spiro[5H-thieno[2,3-c]pyran-7,4′-piperidine] (L)-Tartrate]
Kb [1]: 0.43 nM
Ki [2]: 2890 nM
maximum effect, reduction in immobilization time [3]: 56%
ED60 ([3]; immobility time): 23 nM
fasting-induced hyperphagia [4]: substantially block fasting-induced hyperphagia
